Measurements published in patent US5973005A, “Aqueous creatine solution and process of producing a stable, bioavailable aqueous creatine solution” (priority 1998, dated 1999).
Entries after “also recorded” stand apart in the source; their conditions may differ.

Tests used:
[1] = endogenous level; cited from earlier work
[2] = acidic conditions / stomach; cited from earlier work
physchem = details: weakly alkaline water
Method: A 1 ml sample was analyzed by HPLC using a Shimadzu LC-10AD Liquid Chromatograph. The operating parameters are as follows:
The operating parameters are as follows:

[3] = tested on: adenosine triphosphate resynthesis; details: in muscle, creatine phosphate versus glycogen; cited from earlier work

| creatine remaining, by HPLC (slightly alkaline water) | creatinine produced, by HPLC (weakly alkaline water) | degraded (physchem) [%] | SMILES | normal creatine concentration in the bloodstream [1] | conversion to creatinine under acidic conditions [2] | rate of ATP resynthesis compared to glycogen [3] |
| --- | --- | --- | --- | --- | --- | --- |
| about 85% | about 15% | ~15 | CN(CC(=O)O)C(=N)N [creatine, N-(aminoiminomethyl)-N-methylglycine] | about 50 μmol per liter of blood | formation of creatinine from free creatine is complete; also recorded: rapidly converts to creatinine by the acidic conditions in the stomach | – |
| – | – | – | CN(CC(=O)O)C(=N)NP(=O)(O)O [Creatine phosphate] | – | – | nearly twice the rate |
